Earlier results on 1 compound are cited in PMC4338372 (FEBS Open Bio, 2015).

The data set has as its system Src family kinase. The settings on record: macrophages; inhibition of Src family kinase.

Molecules are shown by their SMILES.

With `CC(C)(C)n1nc(-c2ccc(Cl)cc2)c2c(N)ncnc21` [PP2], the phagocytosis efficiency entry is reported as “decreases phagocytosis efficiency in macrophages”.
